This note sets out measurements from patent US11913075B2, “Methods and compositions for detecting and modulating an immunotherapy resistance gene signature in cancer” (The Broad Institute, Inc., priority 2017, dated 2024).

For assay [1], the system named is IGR37 melanoma cell line (RB-sufficient). Put plainly: scRNA-seq of IGR37 melanoma cell line before and after abemaciclib for 1 week. The class given is cell-based. As to conditions: IGR37, post-treatment with abemaciclib; 10% before treatment. The method, then: (§1) Applicants performed scRNA-seq on these cell lines before and after treatment with abemaciclib for 1 week (FIG. 41).
(§2) To test this hypothesis, Applicants studied the effect of abemaciclib on the immune resistance program in melanoma cell lines. […] Applicants profiled each cell line with scRNA-seq before and after treatment with abemaciclib for 1 week (FIGS. 49D-E), analyzing over 23,000 cells in these and follow-up conditions (below).
(§3) For droplet-based scRNA-seq, experiments were performed on the 10× Genomics Chromium platform, with the Chromium Single Cell 3′ Library & Gel Bead Kit v2 and Chromium Single Cell 3′ Chip kit v2 according to the manufacturer's instructions in the Chromium Single Cell 3′ Reagents Kits V2 User Guide. Briefly, 6,000 cells were re suspended in PBS supplemented with 0.04% BSA and loaded to each channel. The cells were then partitioned into Gel Beads in Emulsion in the GemCode instrument, where cell lysis and barcoded reverse transcription of RNA occurred, followed by amplification, shearing and 5′ adaptor and sample index attachment.

Assay [2] relates to UACC257 melanoma cell line (RB-sufficient). Put plainly: scRNA-seq of UACC257 melanoma cell line before and after abemaciclib for 1 week. The class given is cell-based. As to conditions: UACC257, post treatment with abemaciclib; 10% prior to treatment. The procedure: as §1, §2, §3

For `CCN1CCN(Cc2ccc(Nc3ncc(F)c(-c4cc(F)c5nc(C)n(C(C)C)c5c4)n3)nc2)CC1` [abemaciclib], the “cells with exceptionally strong expression of the uICR signature / immune resistance program ("immune resistant" cells)” value in assay [1] was found to be 2%. For the same compound, the “cells with exceptionally strong expression of the immune resistance program ("immune resistant" cells)” value in assay [2] stood at 1%.
